Consider 26 compounds from patent publication US20230167073A1 (Teijin Pharma Limited, priority 2020, published 2023).

Molecules are shown by their SMILES.

For the first assay, the target named is T1, Human TRPC6 (Homo sapiens, UniProt Q9Y210).
T1 construct: expressed in transfected cells
T1 sequence (Q9Y210 1-931): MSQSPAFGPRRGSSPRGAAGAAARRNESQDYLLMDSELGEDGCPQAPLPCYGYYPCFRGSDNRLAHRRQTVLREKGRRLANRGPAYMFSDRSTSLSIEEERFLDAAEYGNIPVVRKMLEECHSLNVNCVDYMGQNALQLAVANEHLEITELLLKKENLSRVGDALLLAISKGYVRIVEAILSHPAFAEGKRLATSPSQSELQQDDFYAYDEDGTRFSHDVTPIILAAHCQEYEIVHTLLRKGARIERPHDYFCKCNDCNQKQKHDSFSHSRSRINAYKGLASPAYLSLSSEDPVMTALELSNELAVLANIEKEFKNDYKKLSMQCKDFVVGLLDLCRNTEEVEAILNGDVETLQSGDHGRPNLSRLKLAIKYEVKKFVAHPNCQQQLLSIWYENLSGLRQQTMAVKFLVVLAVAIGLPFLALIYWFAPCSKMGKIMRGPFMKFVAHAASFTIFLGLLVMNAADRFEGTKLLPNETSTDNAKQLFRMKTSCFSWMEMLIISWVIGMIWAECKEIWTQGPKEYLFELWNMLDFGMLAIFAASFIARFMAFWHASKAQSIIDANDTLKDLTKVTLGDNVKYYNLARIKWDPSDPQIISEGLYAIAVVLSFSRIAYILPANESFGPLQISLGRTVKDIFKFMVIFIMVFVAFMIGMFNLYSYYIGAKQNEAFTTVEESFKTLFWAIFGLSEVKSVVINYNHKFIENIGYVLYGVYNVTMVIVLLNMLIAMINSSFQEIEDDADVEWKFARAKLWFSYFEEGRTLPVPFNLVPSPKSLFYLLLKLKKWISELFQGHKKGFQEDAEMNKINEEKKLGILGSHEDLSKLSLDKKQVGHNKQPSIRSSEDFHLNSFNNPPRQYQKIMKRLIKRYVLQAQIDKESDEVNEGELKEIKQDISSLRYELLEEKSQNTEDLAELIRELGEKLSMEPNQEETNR
The assay can be described thus: Evaluation of TRPC6 channel inhibitory activity (1), FLIPR Calcium 5 Assay Kit, OAG stimulation (Compound Nos. 1-1293). The assay is classed as cell-based.
Details: not given
In a few lines: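 The FLIPR signal is maximum fluorescence after 30 μM OAG minus minimum before compound, measured in a human TRPC6 stable line loaded with Calcium 5 dye. Compounds were preincubated 20 min. pIC50 came from four-parameter logistic fitting of inhibition rates and is given as symbol ranges.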
With `Cc1cc(Oc2cc(C#N)ccc2-c2ccc([C@H](O)CN)cn2)cc(N2C3CCC2COC3)n1` [compound 446, 4-[5-[(1S)-2-amino-1-hydroxyethyl]pyridin-2-yl]-3-[2-methyl-6-(3-oxa-8-azabicyclo[3.2.1]octan-8-yl)pyridin-4-yl]oxybenzonitrile], the IC50 was under 10 nM.

Staying with this assay, now noted: Human TRPC6 stably-expressing cells, OAG 30 μM, FLIPR Calcium 5 Assay Kit; read-out: Inhibitory activity (pIC50 class) (converted).
In the case of `Cc1nc(Oc2cc(C#N)ccc2-n2cc([C@@H](O)CN)cn2)cc(N2CCCC(C)(C)C2)n1` [Compound 235, 4-[4-[(1R)-2-amino-1 hydroxyethyl]pyrazol-1-yl]-3-[6-(3,3-dimethylpiperidin-1-yl)-2-methylpyrimidin-4-yl]oxybenzonitrile], the IC50 is 10 to 1000 nM.

On to `Cc1cc(Oc2cc(C#N)ccc2-c2ncc([C@@H](F)CN)cn2)cc(N2CCOCC2)n1` [compound 876, 4-[5-[(1R)-2-amino-1-fluoroethyl]pyrimidin-2-yl]-3-(2-methyl-6-morpholin-4-ylpyridin-4-yl)oxybenzonitrile], for which the IC50 was under 10 nM.

For the compound `N#Cc1ccc(-c2ncc(CN)cn2)c(Cn2ncc(-c3ccccc3)n2)c1` [compound 1170, 4-[5-(aminomethyl)pyrimidin-2-yl]-3-[(4-phenyltriazol-2-yl)methyl]benzonitrile], the IC50 was over 1000 nM.

Consider `Cn1nc(N)cc1Oc1cc(C#N)ccc1-c1ccc(CCN)cn1` [compound 577, 4-[5-(2-aminoethyl)pyridin-2-yl]-3-(5-amino-2-methylpyrazol-3-yl)oxybenzonitrile], for which the IC50 was 10 to 1000 nM.

Consider `N#Cc1ccc(-c2ccc(CCN)cc2)c(Oc2cnnc(-c3ccccn3)c2)c1` [Compound 114, 4-[4-(2-aminoethyl)phenyl]-3-(6-pyridin-2-ylpyridazin-4-yl)oxybenzonitrile], for which the IC50 was 10 to 1000 nM.

Take `N#Cc1ccc(-c2ncc(CCN)cn2)c(Cn2cc(C3CC3)nn2)c1` [Compound No. 1187, 4-[5-(2-Aminoethyl)pyrimidin-2-yl]-3-[(4-cyclopropyltriazol-1-yl)methyl]benzonitrile]: the IC50 was under 10 nM.

On to `Cc1nn(CC(F)F)cc1Oc1cc(C#N)ccc1-c1ncc(CCN)cn1` [compound 924, 4-[5-(2-aminoethyl)pyrimidin-2-yl]-3-[1-(2,2-difluoroethyl)-3-methylpyrazol-4-yl]oxybenzonitrile], for which the IC50 is 10 to 1000 nM.

With `Cn1nc(C2CC2)cc1Oc1cc(C#N)ccc1-c1ccc(CC2(N)COC2)cn1` [compound 610, 4-[5-[(3-aminooxetan-3-yl)methyl]pyridin-2-yl]-3-(5-cyclopropyl-2-methylpyrazol-3-yl)oxybenzonitrile], the IC50 is under 10 nM.

As for `CN(C)c1cc(Sc2cc(C#N)ccc2-c2ncc(CN)cn2)cnn1` [compound 1267, 4-[5-(aminomethyl)pyrimidin-2-yl]-3-[6-(dimethylamino)pyridazin-4-yl]sulfanylbenzonitrile], the IC50 was over 1000 nM.

`Cn1nc(C2CC2)c(F)c1Oc1cc(C#N)ccc1-c1ncc(CCN)cn1` [compound 359, 4-[5-(2-aminoethyl)pyrimidin-2-yl]-3-(5-cyclopropyl-4-fluoro-2-methylpyrazol-3-yl)oxybenzonitrile]: the IC50 is 10 to 1000 nM.

Regarding `Cc1nc(Oc2cc(C#N)ccc2-n2ncc3c2CNCC3)cc(N2CCCCC2)n1` [compound 747, 3-(2-methyl-6-piperidin-1-ylpyrimidin-4-yl)oxy-4-(4,5,6,7-tetrahydropyrazolo[3,4-c]pyridin-1-yl)benzonitrile], the IC50 was over 1000 nM.

With `Cc1nc(Oc2cc(C#N)ccc2-c2ncc(CN)cn2)cc(N2CCC[C@H]2C)n1` [compound 794, 4-[5-(aminomethyl)pyrimidin-2-yl]-3-[2-methyl-6-[(2R)-2-methylpyrrolidin-1-yl]pyrimidin-4-yl]oxybenzonitrile], the IC50 was 10 to 1000 nM.

As to `COCCCN(C)c1cc(Oc2cc(C#N)ccc2-c2ncc(CCN)cn2)n(C)n1` [compound 800, 4-[5-(2-aminoethyl)pyrimidin-2-yl]-3-[5-[3-methoxypropyl(methyl)amino]-2-methylpyrazol-3-yl]oxybenzonitrile], the IC50 is 10 to 1000 nM.

For `Cn1nc(C2CC2)cc1Oc1cc(C#N)ccc1-c1ncc(C2(N)CC2)cn1` [compound 463, 4-[5-(1-aminocyclopropyl)pyrimidin-2-yl]-3-(5-cyclopropyl-2-methylpyrazol-3-yl)oxybenzonitrile], the IC50 was over 1000 nM.

For `Cn1nc(N2CCCC2)cc1Oc1cc(C#N)ccc1-c1ccc(CN)cn1` [compound 622, 4-[5-(aminomethyl)pyridin-2-yl]-3-(2-methyl-5-pyrrolidin-1-ylpyrazol-3-yl)oxybenzonitrile], the IC50 was under 10 nM.

`Cc1nc(OCC(F)(F)F)cc(Oc2cc(C#N)ccc2-c2ncc(CCN)cn2)n1` [compound 884, 4-[5-(2-aminoethyl)pyrimidin-2-yl]-3-[2-methyl-6-(2,2,2-trifluoroethoxy)pyrimidin-4-yl]oxybenzonitrile]: the IC50 was 10 to 1000 nM.

For the compound `CN(C)c1nc(-c2ccc(C#N)cc2Oc2cc(-c3ccccn3)nn2C)nc2c1CNCC2` [compound 762, 4-[4-(dimethylamino)-5,6,7,8-tetrahydropyrido[4,3-d]pyrimidin-2-yl]-3-(2-methyl-5-pyridin-2-ylpyrazol-3-yl)oxybenzonitrile], the IC50 is over 1000 nM.

Turning to `Cc1nc(Oc2cc(C#N)ccc2-c2ccc(CCN)cc2)cc(N2CCCC2)n1` [Compound 25, 4-[4-(2-aminoethyl)phenyl]-3-(2-methyl-6-pyrrolidin-1-ylpyrimidin-4-yl)oxybenzonitrile], the IC50 is under 10 nM.

With `Cc1nc(Oc2cc(F)ccc2-c2ccc(CCN)cn2)cc(N2CCOCC2)n1` [compound 1001, 2-[6-[4-fluoro-2-(2-methyl-6-morpholin-4-ylpyrimidin-4-yl)oxyphenyl]pyridin-3-yl]ethanamine], the IC50 was under 10 nM.

For the compound `N#Cc1ccc(-c2ncc(CCN)cn2)c(Cn2cc(C3CCCCC3)nn2)c1` [compound 1186, 4-[5-(2-aminoethyl)pyrimidin-2-yl]-3-[(4-cyclohexyltriazol-1-yl)methyl]benzonitrile], the IC50 is under 10 nM.

`Cn1nc(N2CCOCC2)cc1Oc1cc(C#N)ccc1-c1ncc(CCN)cn1` [compound 771, 4-[5-(2-aminoethyl)pyrimidin-2-yl]-3-(2-methyl-5-morpholin-4-ylpyrazol-3-yl)oxybenzonitrile]: the IC50 was 10 to 1000 nM.

Consider `Cc1nc(Oc2cc(C#N)ccc2-c2ccc(CCN)cc2)cc(-c2ccsc2)n1` [Compound 32, 4-[4-(2-aminoethyl)phenyl]-3-(2-methyl-6-thiophen-3-ylpyrimidin-4-yl)oxybenzonitrile], for which the IC50 was under 10 nM.

For `CC(C)C(N)c1cnc(-c2ccc(C#N)cc2Oc2cc(-c3ccccn3)nn2C)nc1` (centres unmarked) [compound 768, 4-[5-(1-amino-2-methylpropyl)pyrimidin-2-yl]-3-(2-methyl-5-pyridin-2-ylpyrazol-3-yl)oxybenzonitrile], the IC50 was under 10 nM.

In the case of `Cc1nc(OCC2CC2(F)F)cc(Oc2cc(C#N)ccc2-c2ncc(CN)cn2)n1` (centres unmarked) [compound 847, 4-[5-(aminomethyl)pyrimidin-2-yl]-3-[6-[(2,2-difluorocyclopropyl)methoxy]-2-methylpyrimidin-4-yl]oxybenzonitrile], the IC50 was over 1000 nM.

On to `N#Cc1ccc(-c2ccc(CCN)cc2)c(Cn2cnc(-c3ccccc3)c2)c1` [compound 1111, 4-[4-(2-aminoethyl)phenyl]-3-[(4-phenylimidazol-1-yl)methyl]benzonitrile], for which the IC50 was 10 to 1000 nM.
